# Assay results taken from US20080009418A1, “Selective Inhibitors” (Alchemia LTD., priority 2004, published 2008).
# What was measured:
# [1] = target: T1, Human melanocortin (MC5) (Homo sapiens, UniProt P33032); experiment: Radioligand binding, human melanocortin MC5 membranes, FlashPlate, [125I]-NDP-αMSH; settings: compound at 10 μM, [125I]-NDP-αMSH; for A5: inhibition of radioligand binding: human MC5 membranes
# T1 construct: purchased Perkin Elmer Biosignal
# Method in brief: (§1)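 Cloned human receptor membranes were coated onto FlashPlate wells and incubated with radioligand and compound (added from a 0.5 mM DMSO daughter plate) for 1 hour at room temperature in the dark. Scintillation counting gave percent inhibition, with DMSO defining total and reference ligand defining non-specific binding.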
# [2] = target: T2, Human Melanocortin (MC3) (Homo sapiens, UniProt P41968); experiment: Radioligand binding, human melanocortin MC3 membranes, FlashPlate, [125I]-NDP-αMSH; settings: compound at 10 μM, [125I]-NDP-αMSH; for A3: inhibition of radioligand binding: human MC3 membranes
# T2 construct: purchased Perkin Elmer Biosignal
# Method in brief: as §1
# [3] = target: T3, Human opioid (ORL1) (Homo sapiens, UniProt P41146); experiment: Radioligand binding, human opioid ORL1 membranes, FlashPlate, [125I]-Nociceptin; settings: compound at 10 μM, [125I]-Nociceptin; for A10: inhibition of radioligand binding: human ORL1 membranes
# T3 construct: purchased Perkin Elmer Biosignal
# Method in brief: as §1
# [4] = target: T4, Human κ-Opioid (KOP) (Homo sapiens, UniProt P41145); experiment: Radioligand binding, human κ-opioid (KOP) membranes, filtration, [3H]-Diprenorphine; settings: compound at 10 μM, [3H]-Diprenorphine; for A2: inhibition of radioligand binding: human KOP membranes
# T4 construct: purchased Perkin Elmer Biosignal
# Method in brief: (§2)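 Membranes from cloned human receptors were incubated with compound and radioligand for 1 hour at room temperature. Bound ligand was collected on 0.3% PEI-soaked filters, washed with cold 50 mM Tris-HCl pH 7.4, and counted by scintillation. Percent inhibition was computed against DMSO totals and reference-ligand nonspecific wells.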
# [5] = target: T5, Human μ-opioid (MOP) (Homo sapiens, UniProt P35372); experiment: Radioligand binding, human μ-opioid (MOP) membranes, FlashPlate, [3H]-Naloxone; settings: compound at 10 μM, [3H]-Naloxone; for A7: inhibition of radioligand binding: human MOP membranes
# T5 construct: purchased Perkin Elmer Biosignal
# Method in brief: as §1
# [6] = target: T6, Human δ-opioid (DOP) (Homo sapiens, UniProt P41143); experiment: Radioligand binding, human δ-opioid (DOP) membranes, FlashPlate, [3H]-Bremazocine; settings: compound at 10 μM, [3H]-Bremazocine; for A1: inhibition of radioligand binding: human DOP membranes
# T6 construct: purchased Perkin Elmer Biosignal
# Method in brief: as §1
# [7] = target: T7, Mouse urotensin (mUR2) (Mus musculus, UniProt Q8VIH9); experiment: Radioligand binding, mouse urotensin mUR2 membranes, FlashPlate, [125I]-Urotensin II; settings: compound at 10 μM, [125I]-Urotensin II; for A11: inhibition of radioligand binding: mouse mUR2 membranes
# T7 construct: purchased Perkin Elmer Biosignal
# T7 sequence (Q8VIH9 1-385): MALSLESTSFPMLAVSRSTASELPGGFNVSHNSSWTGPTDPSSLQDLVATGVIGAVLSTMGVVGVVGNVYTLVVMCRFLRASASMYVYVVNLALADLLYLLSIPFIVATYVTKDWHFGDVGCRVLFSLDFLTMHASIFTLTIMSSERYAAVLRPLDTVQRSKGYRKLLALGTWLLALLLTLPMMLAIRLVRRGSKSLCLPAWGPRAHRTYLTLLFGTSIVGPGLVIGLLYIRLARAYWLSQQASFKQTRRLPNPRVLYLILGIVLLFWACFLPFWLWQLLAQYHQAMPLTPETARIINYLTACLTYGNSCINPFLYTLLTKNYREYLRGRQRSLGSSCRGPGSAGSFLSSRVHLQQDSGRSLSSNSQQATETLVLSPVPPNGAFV
# Method in brief: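 Cloned mouse urotensin (mUR2) receptor membranes from Perkin Elmer Biosignal were immobilized in FlashPlate microplates using a proprietary coating. Each well got 19.5 μl buffer, then 0.5 μl of DMSO, reference ligand, or compound. Adding 5 μl of [125I]-Urotensin II, diluted to 5× final concentration in binding buffer, started binding. Plates were sealed with TopSeal-A and incubated 1 hour at room temperature in the dark. Wells were counted for 30 seconds each on a TopCount after a 60-second delay, and percentage inhibition was calculated.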
# [8] = target: T8, Human Melanocortin (MC4) (Homo sapiens, UniProt P32245); experiment: Radioligand binding, human melanocortin MC4 membranes, FlashPlate, [125I]-NDP-αMSH; settings: compound at 10 μM, [125I]-NDP-αMSH; for A4: inhibition of radioligand binding: human MC4 membranes
# T8 construct: purchased Perkin Elmer Biosignal
# Method in brief: as §1
# [9] = target: T9, Human melanin-concentrating hormone (MCH1) (Homo sapiens, UniProt Q99705); experiment: Radioligand binding, human melanin-concentrating hormone MCH1 membranes, FlashPlate, [125I]-S36057; settings: compound at 10 μM; for A6: inhibition of radioligand binding: [125I]-S36057, human MCH1 membranes
# T9 construct: purchased Perkin Elmer Biosignal
# Method in brief: as §1
# [10] = target: T10, Human neuropeptide Y (NPY-Y1) (Homo sapiens, UniProt P25929); experiment: Radioligand binding, human neuropeptide Y NPY-Y1 membranes, FlashPlate, [125I]-PYY; settings: compound at 10 μM, [125I]-PYY; for A9: inhibition of radioligand binding: human NPY-Y1 membranes
# T10 construct: purchased Perkin Elmer Biosignal
# T10 sequence (P25929 1-384): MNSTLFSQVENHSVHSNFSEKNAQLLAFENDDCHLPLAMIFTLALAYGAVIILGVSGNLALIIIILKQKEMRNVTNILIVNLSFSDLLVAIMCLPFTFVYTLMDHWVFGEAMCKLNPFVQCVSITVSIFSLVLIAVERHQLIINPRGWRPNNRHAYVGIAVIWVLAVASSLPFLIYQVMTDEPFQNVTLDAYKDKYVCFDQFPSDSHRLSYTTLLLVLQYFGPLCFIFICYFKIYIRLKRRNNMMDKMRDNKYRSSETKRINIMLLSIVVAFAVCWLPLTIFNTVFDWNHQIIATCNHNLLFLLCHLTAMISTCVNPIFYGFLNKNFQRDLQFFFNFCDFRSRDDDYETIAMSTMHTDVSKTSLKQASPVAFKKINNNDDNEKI
# Method in brief: as §1
# [11] = target: T11, Human neurokinin (NK1) (Homo sapiens, UniProt P25103); experiment: Radioligand binding, human neurokinin NK1 membranes, filtration, [125I]-Substance P; settings: compound at 10 μM, [125I]-Substance P; for A8: inhibition of radioligand binding: human NK1 membranes
# T11 construct: purchased Perkin Elmer Biosignal
# Method in brief: as §2
# T3 sequence (P41146 whole entry): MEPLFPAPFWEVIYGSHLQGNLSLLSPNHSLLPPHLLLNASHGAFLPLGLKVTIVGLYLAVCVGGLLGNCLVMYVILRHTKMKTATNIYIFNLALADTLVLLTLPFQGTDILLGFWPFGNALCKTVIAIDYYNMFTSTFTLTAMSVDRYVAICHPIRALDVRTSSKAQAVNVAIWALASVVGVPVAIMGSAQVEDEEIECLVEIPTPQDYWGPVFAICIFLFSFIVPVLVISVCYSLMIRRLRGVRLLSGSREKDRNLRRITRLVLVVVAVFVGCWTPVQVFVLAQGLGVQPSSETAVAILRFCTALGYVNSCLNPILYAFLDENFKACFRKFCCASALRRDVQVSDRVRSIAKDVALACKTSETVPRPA
# T9 sequence (Q99705 whole entry): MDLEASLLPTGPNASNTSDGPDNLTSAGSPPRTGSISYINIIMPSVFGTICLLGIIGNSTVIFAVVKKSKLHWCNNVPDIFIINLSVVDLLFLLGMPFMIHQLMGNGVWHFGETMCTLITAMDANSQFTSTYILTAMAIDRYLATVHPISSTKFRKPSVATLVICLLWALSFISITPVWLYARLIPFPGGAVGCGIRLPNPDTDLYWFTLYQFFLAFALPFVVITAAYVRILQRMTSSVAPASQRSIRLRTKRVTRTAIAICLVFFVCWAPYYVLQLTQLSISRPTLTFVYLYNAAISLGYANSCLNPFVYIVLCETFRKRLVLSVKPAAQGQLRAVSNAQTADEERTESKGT
# T4 sequence (P41145 whole entry): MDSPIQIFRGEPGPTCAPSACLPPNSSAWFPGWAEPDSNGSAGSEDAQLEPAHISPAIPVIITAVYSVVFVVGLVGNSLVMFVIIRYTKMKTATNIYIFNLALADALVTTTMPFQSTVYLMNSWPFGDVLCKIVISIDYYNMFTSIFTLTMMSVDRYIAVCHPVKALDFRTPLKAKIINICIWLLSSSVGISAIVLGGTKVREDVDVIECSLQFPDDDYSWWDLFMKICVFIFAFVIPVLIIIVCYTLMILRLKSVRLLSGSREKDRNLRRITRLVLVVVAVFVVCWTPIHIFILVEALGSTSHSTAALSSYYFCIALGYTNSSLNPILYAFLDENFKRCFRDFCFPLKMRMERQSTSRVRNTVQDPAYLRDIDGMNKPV
# T6 sequence (P41143 whole entry): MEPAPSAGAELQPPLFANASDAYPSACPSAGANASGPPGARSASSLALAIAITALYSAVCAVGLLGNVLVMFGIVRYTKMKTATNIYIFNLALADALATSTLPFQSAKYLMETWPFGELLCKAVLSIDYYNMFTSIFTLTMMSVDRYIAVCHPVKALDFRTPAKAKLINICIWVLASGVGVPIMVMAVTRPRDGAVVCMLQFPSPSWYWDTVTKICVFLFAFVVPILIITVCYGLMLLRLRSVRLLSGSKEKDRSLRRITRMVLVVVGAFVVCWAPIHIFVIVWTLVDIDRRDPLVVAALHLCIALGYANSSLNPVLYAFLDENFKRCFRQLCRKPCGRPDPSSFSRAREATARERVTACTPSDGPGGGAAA
# T11 sequence (P25103 whole entry): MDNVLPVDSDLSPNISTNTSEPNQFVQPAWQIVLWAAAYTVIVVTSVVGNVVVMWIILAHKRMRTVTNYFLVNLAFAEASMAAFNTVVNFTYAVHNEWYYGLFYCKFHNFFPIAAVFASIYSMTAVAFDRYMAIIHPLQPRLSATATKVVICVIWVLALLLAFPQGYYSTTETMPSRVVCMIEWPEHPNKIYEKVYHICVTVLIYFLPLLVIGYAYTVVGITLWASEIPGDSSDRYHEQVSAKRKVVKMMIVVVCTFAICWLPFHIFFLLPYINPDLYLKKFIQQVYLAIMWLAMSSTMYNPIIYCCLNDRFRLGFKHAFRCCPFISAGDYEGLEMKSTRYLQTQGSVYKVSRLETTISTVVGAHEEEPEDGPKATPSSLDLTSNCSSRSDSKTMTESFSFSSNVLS
# T2 sequence (P41968 whole entry): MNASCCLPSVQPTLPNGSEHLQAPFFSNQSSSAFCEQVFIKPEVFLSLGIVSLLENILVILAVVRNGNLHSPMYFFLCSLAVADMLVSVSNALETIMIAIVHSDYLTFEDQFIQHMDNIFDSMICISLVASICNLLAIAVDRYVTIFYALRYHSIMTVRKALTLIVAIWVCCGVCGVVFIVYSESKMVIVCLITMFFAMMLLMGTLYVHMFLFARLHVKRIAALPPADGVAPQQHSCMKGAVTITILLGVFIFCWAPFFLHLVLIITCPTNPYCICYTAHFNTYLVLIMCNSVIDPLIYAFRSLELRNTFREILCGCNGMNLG
# T1 sequence (P33032 whole entry): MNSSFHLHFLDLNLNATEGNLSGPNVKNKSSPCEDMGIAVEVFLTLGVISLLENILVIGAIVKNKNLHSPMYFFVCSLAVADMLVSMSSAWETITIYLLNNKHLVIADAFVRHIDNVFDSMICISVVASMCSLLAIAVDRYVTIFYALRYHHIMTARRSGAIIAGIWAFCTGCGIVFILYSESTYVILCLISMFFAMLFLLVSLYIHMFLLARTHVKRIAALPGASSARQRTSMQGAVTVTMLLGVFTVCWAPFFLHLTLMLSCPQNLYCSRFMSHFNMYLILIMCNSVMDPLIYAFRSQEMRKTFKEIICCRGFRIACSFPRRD
# T5 sequence (P35372 whole entry): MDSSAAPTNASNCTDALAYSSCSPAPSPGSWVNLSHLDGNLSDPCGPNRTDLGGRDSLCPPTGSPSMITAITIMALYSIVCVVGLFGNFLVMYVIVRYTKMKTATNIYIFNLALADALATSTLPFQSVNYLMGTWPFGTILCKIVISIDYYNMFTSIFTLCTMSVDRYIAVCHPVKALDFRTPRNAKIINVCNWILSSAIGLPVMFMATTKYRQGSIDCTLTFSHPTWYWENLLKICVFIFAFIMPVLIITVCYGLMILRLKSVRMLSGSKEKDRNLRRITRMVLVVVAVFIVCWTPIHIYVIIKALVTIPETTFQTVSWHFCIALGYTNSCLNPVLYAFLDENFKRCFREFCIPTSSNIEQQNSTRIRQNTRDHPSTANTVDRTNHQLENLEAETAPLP
# T8 sequence (P32245 whole entry): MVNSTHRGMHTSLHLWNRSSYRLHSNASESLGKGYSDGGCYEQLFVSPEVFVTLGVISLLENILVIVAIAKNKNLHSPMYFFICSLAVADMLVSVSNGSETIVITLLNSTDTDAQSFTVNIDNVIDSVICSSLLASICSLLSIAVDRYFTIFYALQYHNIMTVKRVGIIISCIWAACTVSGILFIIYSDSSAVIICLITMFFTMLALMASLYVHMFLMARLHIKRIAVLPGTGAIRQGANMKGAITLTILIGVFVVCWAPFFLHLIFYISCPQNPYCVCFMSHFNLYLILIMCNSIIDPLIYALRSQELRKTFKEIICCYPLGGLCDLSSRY
Structure (SMILES),"A5: inhibition of radioligand binding, human melanocortin (MC5) [1]","A3: inhibition of radioligand binding, human melanocortin (MC3) [2]","A2: inhibition of radioligand binding, human κ-opioid (KOP) [4]","A7: inhibition of radioligand binding, human μ-opioid (MOP) [5]","A1: inhibition of radioligand binding, human δ-opioid (DOP) [6]","A11: inhibition of radioligand binding, mouse urotensin (mUR2) [7]","A4: inhibition of radioligand binding, human melanocortin (MC4) [8]","A6: inhibition of radioligand binding, human melanin-concentrating hormone (MCH1) ([9]; [125I]-S36057)","A9: inhibition of radioligand binding, human neuropeptide Y (NPY-Y1) [10]","A8: inhibition of radioligand binding, human neurokinin (NK1) [11]",A5: inhibition of radioligand binding [1],A3: inhibition of radioligand binding [2],A10: inhibition of radioligand binding [3],A2: inhibition of radioligand binding [4],A7: inhibition of radioligand binding [5],A1: inhibition of radioligand binding [6],A11: inhibition of radioligand binding [7],A4: inhibition of radioligand binding [8],A6: inhibition of radioligand binding [9],A9: inhibition of radioligand binding [10],further results
COC[C@H]1OC(OCc2cccc(O)c2)[C@H](NC(=O)CNC(=N)N)[C@@H](OCc2ccc(-c3ccccc3)cc2)[C@@H]1O (stereo partly shown) [compound 141],,,,,,,,,,,,,,,,,,,,,"A5 radioligand binding, percentage inhibition [1]: + (“+” indicates greater than 50% inhibition at 10 μM); A3 radioligand binding, percentage inhibition [2]: − (“−” indicates less than 50% inhibition at 10 μM); A10 radioligand binding, percentage inhibition [3]: − (“−” indicates less than 50% inhibition at 10 μM); A2 radioligand binding, percentage inhibition [4]: − (“−” indicates less than 50% inhibition at 10 μM); A7 radioligand binding, percentage inhibition [5]: − (“−” indicates less than 50% inhibition at 10 μM); A1 radioligand binding, percentage inhibition [6]: − (“−” indicates less than 50% inhibition at 10 μM); A11 radioligand binding, percentage inhibition [7]: − (“−” indicates less than 50% inhibition at 10 μM); A4 radioligand binding, percentage inhibition [8]: − (“−” indicates less than 50% inhibition at 10 μM); A6 radioligand binding, percentage inhibition ([9]; [125I]-S36057): + (“+” indicates greater than 50% inhibition at 10 μM); A9 radioligand binding, percentage inhibition [10]: − (“−” indicates less than 50% inhibition at 10 μM); A8 radioligand binding, percentage inhibition [11]: − (“−” indicates less than 50% inhibition at 10 μM)"
N=C(N)NCC(=O)N[C@H]1C(OCc2ccc(Cl)cc2)O[C@H](COCc2ccc(Cl)cc2)[C@@H](O)[C@@H]1OCc1ccc2ccccc2c1 (stereo partly shown) [compound 516],+ (“+” indicates greater than 50% inhibition at 10 μM),+ (“+” indicates greater than 50% inhibition at 10 μM),− (“−” indicates less than 50% inhibition at 10 μM),− (“−” indicates less than 50% inhibition at 10 μM),− (“−” indicates less than 50% inhibition at 10 μM),− (“−” indicates less than 50% inhibition at 10 μM),+ (“+” indicates greater than 50% inhibition at 10 μM),+ (“+” indicates greater than 50% inhibition at 10 μM),− (“−” indicates less than 50% inhibition at 10 μM),+ (“+” indicates greater than 50% inhibition at 10 μM),,,,,,,,,,,"A10: inhibition of radioligand binding, human opioid (ORL1) ([3]; 10 µM): − (“−” indicates less than 50% inhibition at 10 μM)"
N=C(N)NCCCC(=O)NC1COC(COCc2ccc3ccccc3c2)C(O)C1OCc1ccc(Cl)cc1 (stereo not shown) [compound 541],− (“−” indicates less than 50% inhibition at 10 μM),− (“−” indicates less than 50% inhibition at 10 μM),− (“−” indicates less than 50% inhibition at 10 μM),− (“−” indicates less than 50% inhibition at 10 μM),− (“−” indicates less than 50% inhibition at 10 μM),− (“−” indicates less than 50% inhibition at 10 μM),− (“−” indicates less than 50% inhibition at 10 μM),− (“−” indicates less than 50% inhibition at 10 μM),− (“−” indicates less than 50% inhibition at 10 μM),+ (“+” indicates greater than 50% inhibition at 10 μM),,,,,,,,,,,"A10: inhibition of radioligand binding, human opioid (ORL1) [3]: − (“−” indicates less than 50% inhibition at 10 μM)"
N=C(N)NCCC(=O)NC1C(OCc2ccc(Cl)cc2)OC(COCc2ccccc2)C(O)C1OCc1ccc(-c2ccccc2)cc1 (stereo not shown) [compound 433],,,,,,,,,,,+ (“+” indicates greater than 50% inhibition at 10 μM),− (“−” indicates less than 50% inhibition at 10 μM),− (“−” indicates less than 50% inhibition at 10 μM),− (“−” indicates less than 50% inhibition at 10 μM),− (“−” indicates less than 50% inhibition at 10 μM),− (“−” indicates less than 50% inhibition at 10 μM),− (“−” indicates less than 50% inhibition at 10 μM),+ (“+” indicates greater than 50% inhibition at 10 μM),+ (“+” indicates greater than 50% inhibition at 10 μM),− (“−” indicates less than 50% inhibition at 10 μM),A8: inhibition of radioligand binding [11]: + (“+” indicates greater than 50% inhibition at 10 μM)
N=C(N)NCCC(=O)NC1C(OCc2ccc(-c3ccccc3)cc2)OC(COCc2ccc3ccccc3c2)C(O)C1OCc1ccc(-c2ccccc2)cc1 (stereo not shown) [compound 414],,,,,,,,,,,+ (“+” indicates greater than 50% inhibition at 10 μM),− (“−” indicates less than 50% inhibition at 10 μM),− (“−” indicates less than 50% inhibition at 10 μM),− (“−” indicates less than 50% inhibition at 10 μM),− (“−” indicates less than 50% inhibition at 10 μM),− (“−” indicates less than 50% inhibition at 10 μM),− (“−” indicates less than 50% inhibition at 10 μM),− (“−” indicates less than 50% inhibition at 10 μM),− (“−” indicates less than 50% inhibition at 10 μM),− (“−” indicates less than 50% inhibition at 10 μM),A8: inhibition of radioligand binding [11]: + (“+” indicates greater than 50% inhibition at 10 μM)
